Source: ChEMBL document CHEMBL2034839, “Pharmacophore Refinement Guides the Rational Design of Nanomolar-Range Inhibitors of the Botulinum Neurotoxin Serotype A Metalloprotease” (ACS Med Chem Lett, 2010)
Active and inactive are the calls of the source. The rule behind the calls is not given here.

How the values were obtained:
[1] = molecular target: Botulinum neurotoxin type A (Clostridium botulinum, UniProt P0DPI0); assay: Inhibition of Clostridium botulinum BoNT/A light chain assessed as inhibition of SNAP-25 (187-203) substrate hydrolysis by RP-HPLC-based assay in presence of excess Zn(II)
Chain of Botulinum neurotoxin type A (P0DPI0 2-448 limits assumed): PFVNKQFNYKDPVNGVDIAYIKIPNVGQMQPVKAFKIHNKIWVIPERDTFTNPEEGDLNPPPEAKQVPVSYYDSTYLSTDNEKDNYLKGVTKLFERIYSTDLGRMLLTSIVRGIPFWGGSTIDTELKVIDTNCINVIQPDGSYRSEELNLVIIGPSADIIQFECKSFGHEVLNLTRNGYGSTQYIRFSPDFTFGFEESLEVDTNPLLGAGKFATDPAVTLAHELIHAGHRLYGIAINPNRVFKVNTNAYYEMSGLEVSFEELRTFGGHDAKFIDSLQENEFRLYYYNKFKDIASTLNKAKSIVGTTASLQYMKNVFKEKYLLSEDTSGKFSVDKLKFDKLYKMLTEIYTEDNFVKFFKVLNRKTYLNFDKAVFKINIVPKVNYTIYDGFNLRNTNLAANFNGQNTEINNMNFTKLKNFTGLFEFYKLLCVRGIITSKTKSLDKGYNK

[2] = molecular target: Botulinum neurotoxin type A (Clostridium botulinum) (UniProt P0DPI0); assay: Competitive inhibition of Clostridium botulinum BoNT/A light chain assessed as inhibition of SNAP-25 (187-203) substrate hydrolysis by Dixon plot analysis
Chain of Botulinum neurotoxin type A (Clostridium botulinum) (P0DPI0 2-448 limits assumed): as above

## O=C(NCCCCNc1ccnc2cc(Cl)ccc12)c1cc(NC(=O)c2ccc(C(=O)Nc3cc(C(=O)NCCCCNc4ccnc5cc(Cl)ccc45)cc(C4=NCCN4)c3)cc2)cc(C2=NCCN2)c1
[1]
  Ki: 900 nM
[2]
  inhibition: Active

## CCCCNC(=O)c1cc(NC(=O)c2ccc(C(=O)Nc3cc(C(=O)NCCCC)cc(C4=NCCN4)c3)cc2)cc(C2=NCCN2)c1
[1]
  Ki: 8520 nM

## O=C(NCCCNc1ccnc2cc(Cl)ccc12)c1cc(NC(=O)c2ccc(C(=O)Nc3cc(C(=O)NCCCNc4ccnc5cc(Cl)ccc45)cc(C4=NCCN4)c3)cc2)cc(C2=NCCN2)c1
[1]
  Ki: 572 nM
[2]
  inhibition: Active

## O=C(NCCNc1ccnc2cc(Cl)ccc12)c1cc(NC(=O)c2ccc(C(=O)Nc3cc(C(=O)NCCNc4ccnc5cc(Cl)ccc45)cc(C4=NCCN4)c3)cc2)cc(C2=NCCN2)c1
[1]
  Ki: 2120 nM
[2]
  inhibition: Active
